{"source": "the kinase profiling compilation of Christmann-Franck et al. (2016)", "assay_in_all_cases": "radiometric filter-binding kinase assay, Kinase HotSpot", "conditions_in_all_cases": "compound 0.5 µM; ATP 10 µM", "key": {"ABL2 (human)": {"target": "ABL2 (human) (UniProt P42684)"}, "ACVR1 (human)": {"target": "ACVR1 (human) (UniProt Q04771)"}, "AKT2 (human)": {"target": "AKT2 (human) (UniProt P31751)"}, "CAMKK2 (human)": {"target": "CAMKK2 (human) (UniProt Q96RR4)"}, "CDK2 CCNA2 (human)": {"target": "CDK2 CCNA2 (human) (UniProt P24941+P20248)"}, "CLK4 (human)": {"target": "CLK4 (human) (UniProt Q9HAZ1)"}, "CSNK2A1 (human)": {"target": "CSNK2A1 (human) (UniProt P68400)"}, "DYRK1B (human)": {"target": "DYRK1B (human) (UniProt Q9Y463)", "sequence (Q9Y463 whole entry, looked up)": "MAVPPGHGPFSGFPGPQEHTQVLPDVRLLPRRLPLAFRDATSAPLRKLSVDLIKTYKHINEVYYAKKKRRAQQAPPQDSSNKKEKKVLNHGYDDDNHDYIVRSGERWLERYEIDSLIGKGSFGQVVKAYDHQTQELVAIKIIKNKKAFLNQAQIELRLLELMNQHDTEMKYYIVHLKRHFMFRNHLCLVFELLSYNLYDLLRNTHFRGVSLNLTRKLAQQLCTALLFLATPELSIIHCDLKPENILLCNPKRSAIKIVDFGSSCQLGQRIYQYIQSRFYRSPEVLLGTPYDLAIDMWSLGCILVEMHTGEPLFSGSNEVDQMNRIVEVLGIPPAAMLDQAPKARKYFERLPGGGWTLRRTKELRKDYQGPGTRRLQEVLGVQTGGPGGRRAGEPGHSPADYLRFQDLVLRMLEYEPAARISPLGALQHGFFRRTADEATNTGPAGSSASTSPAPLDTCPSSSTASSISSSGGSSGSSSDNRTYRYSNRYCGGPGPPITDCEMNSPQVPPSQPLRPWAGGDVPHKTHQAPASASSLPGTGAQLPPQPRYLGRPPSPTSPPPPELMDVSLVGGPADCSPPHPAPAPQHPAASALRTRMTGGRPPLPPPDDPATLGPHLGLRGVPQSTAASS"}, "EPHA8 (human)": {"target": "EPHA8 (human) (UniProt P29322)"}, "FES (human)": {"target": "FES (human) (UniProt P07332)"}, "FGFR3 (human)": {"target": "FGFR3 (human) (UniProt P22607)"}, "FGR (human)": {"target": "FGR (human) (UniProt P09769)"}, "HIPK2 (human)": {"target": "HIPK2 (human) (UniProt Q9H2X6)"}, "IGF1R (human)": {"target": "IGF1R (human) (UniProt P08069)"}, "KDR (human)": {"target": "KDR (human) (UniProt P35968)"}, "KIT (human)": {"target": "KIT (human) (UniProt P10721)"}, "MAP3K7 TAB1 (human)": {"target": "MAP3K7 TAB1 (human) (UniProt O43318+Q15750)"}, "MAP4K4 (human)": {"target": "MAP4K4 (human) (UniProt O95819)"}, "MAPKAPK2 (human)": {"target": "MAPKAPK2 (human) (UniProt P49137)"}, "MST1R (human)": {"target": "MST1R (human) (UniProt Q04912)"}, "NEK3 (human)": {"target": "NEK3 (human) (UniProt P51956)", "sequence (P51956 whole entry, looked up)": "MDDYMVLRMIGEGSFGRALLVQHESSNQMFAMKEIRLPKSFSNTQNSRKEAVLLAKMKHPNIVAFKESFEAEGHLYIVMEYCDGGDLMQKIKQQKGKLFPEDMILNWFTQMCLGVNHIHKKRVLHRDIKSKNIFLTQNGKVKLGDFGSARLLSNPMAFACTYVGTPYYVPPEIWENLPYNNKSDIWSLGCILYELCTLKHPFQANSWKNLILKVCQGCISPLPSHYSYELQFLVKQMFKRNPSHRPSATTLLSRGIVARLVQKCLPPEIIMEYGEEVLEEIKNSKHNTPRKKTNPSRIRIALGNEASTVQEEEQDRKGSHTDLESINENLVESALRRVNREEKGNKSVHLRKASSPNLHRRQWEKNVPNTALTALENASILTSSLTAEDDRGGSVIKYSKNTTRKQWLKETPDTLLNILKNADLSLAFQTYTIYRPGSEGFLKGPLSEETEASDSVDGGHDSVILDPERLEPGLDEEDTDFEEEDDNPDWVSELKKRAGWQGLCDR"}, "NEK6 (human)": {"target": "NEK6 (human) (UniProt Q9HC98)"}, "NUAK2 (human)": {"target": "NUAK2 (human) (UniProt Q9H093)", "sequence (Q9H093 whole entry, looked up)": "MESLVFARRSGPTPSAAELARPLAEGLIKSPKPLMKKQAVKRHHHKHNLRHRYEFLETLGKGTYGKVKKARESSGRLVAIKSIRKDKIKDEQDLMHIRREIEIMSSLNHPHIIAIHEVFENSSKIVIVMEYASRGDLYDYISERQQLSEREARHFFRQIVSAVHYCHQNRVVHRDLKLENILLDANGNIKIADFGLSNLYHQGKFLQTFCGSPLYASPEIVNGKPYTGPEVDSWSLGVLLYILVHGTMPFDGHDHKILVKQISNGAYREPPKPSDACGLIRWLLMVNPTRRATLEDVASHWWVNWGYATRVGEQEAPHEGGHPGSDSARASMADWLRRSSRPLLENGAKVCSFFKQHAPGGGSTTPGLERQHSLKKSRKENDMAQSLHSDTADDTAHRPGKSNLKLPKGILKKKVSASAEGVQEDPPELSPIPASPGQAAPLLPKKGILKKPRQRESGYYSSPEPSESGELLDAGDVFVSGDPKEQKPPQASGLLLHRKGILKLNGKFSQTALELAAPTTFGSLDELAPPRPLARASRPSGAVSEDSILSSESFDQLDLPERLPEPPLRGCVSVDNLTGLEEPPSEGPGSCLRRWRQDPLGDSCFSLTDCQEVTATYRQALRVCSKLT"}, "OXSR1 (human)": {"target": "OXSR1 (human) (UniProt O95747)", "sequence (O95747 whole entry, looked up)": "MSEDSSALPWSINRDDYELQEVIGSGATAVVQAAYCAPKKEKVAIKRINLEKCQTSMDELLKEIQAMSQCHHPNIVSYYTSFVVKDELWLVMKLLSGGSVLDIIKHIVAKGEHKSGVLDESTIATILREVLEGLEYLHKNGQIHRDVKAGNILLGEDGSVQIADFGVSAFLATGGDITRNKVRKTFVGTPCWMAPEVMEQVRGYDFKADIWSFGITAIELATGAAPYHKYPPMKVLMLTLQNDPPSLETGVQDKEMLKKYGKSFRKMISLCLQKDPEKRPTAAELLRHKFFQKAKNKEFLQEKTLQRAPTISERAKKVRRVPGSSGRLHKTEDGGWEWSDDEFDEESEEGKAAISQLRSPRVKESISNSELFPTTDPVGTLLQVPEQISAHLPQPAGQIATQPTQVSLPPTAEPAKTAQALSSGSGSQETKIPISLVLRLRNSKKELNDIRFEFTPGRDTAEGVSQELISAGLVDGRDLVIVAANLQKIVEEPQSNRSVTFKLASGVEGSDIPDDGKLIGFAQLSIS"}, "PBK (human)": {"target": "PBK (human) (UniProt Q96KB5)"}, "PDGFRB (human)": {"target": "PDGFRB (human) (UniProt P09619)"}, "PIM2 (human)": {"target": "PIM2 (human) (UniProt Q9P1W9)", "sequence (Q9P1W9 whole entry, looked up)": "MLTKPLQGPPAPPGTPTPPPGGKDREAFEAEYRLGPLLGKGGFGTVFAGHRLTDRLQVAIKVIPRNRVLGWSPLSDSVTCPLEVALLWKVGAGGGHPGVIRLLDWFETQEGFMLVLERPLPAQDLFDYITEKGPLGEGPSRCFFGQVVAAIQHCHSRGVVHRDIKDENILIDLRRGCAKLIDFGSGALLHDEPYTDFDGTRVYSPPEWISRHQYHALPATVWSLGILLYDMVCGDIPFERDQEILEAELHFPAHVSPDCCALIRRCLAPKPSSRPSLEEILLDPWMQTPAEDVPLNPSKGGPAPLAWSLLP"}, "PRKCA (human)": {"target": "PRKCA (human) (UniProt P17252)"}, "PRKD1 (human)": {"target": "PRKD1 (human) (UniProt Q15139)"}, "PTK2 (human)": {"target": "PTK2 (human) (UniProt Q05397)", "sequence (Q05397 whole entry, looked up)": "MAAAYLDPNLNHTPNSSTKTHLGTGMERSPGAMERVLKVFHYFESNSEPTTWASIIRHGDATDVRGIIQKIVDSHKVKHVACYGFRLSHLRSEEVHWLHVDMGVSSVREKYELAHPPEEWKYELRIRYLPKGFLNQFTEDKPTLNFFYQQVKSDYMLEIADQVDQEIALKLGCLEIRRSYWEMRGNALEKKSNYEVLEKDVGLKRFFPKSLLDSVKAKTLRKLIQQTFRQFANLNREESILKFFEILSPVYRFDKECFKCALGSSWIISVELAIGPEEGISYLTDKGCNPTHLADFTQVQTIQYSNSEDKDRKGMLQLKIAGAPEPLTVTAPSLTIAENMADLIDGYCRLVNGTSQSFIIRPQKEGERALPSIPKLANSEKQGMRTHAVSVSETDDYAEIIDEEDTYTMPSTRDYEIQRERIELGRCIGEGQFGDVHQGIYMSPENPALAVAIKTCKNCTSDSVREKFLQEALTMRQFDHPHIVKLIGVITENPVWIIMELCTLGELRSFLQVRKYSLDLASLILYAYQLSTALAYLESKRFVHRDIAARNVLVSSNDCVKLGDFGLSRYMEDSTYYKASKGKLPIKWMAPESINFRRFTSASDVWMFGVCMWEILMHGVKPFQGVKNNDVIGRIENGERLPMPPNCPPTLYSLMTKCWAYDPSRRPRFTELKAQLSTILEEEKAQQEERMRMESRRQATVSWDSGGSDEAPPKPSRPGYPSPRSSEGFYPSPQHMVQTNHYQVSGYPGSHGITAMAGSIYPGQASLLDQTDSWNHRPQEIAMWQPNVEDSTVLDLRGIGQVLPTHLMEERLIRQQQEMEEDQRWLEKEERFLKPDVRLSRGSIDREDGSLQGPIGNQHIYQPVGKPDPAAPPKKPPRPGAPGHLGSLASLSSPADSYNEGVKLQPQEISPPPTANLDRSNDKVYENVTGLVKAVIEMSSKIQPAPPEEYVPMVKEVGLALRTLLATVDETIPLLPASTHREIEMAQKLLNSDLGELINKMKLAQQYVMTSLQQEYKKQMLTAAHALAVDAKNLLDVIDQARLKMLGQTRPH"}, "RIPK2 (human)": {"target": "RIPK2 (human) (UniProt O43353)"}, "ROCK1 (human)": {"target": "ROCK1 (human) (UniProt Q13464)"}, "SGK2 (human)": {"target": "SGK2 (human) (UniProt Q9HBY8)"}, "SIK2 (human)": {"target": "SIK2 (human) (UniProt Q9H0K1)"}, "STK16 (human)": {"target": "STK16 (human) (UniProt O75716)", "sequence (O75716 whole entry, looked up)": "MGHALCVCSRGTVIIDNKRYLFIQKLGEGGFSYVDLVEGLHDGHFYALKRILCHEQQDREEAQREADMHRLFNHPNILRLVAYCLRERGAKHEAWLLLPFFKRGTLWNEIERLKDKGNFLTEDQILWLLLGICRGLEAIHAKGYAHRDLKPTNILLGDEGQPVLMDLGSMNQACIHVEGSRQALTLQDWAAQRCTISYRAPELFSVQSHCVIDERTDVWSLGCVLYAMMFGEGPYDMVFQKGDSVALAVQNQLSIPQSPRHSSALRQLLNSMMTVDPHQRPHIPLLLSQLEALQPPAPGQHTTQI"}, "STK24 (human)": {"target": "STK24 (human) (UniProt Q9Y6E0)"}, "STK4 (human)": {"target": "STK4 (human) (UniProt Q13043)"}, "SYK (human)": {"target": "SYK (human) (UniProt P43405)"}, "TAOK3 (human)": {"target": "TAOK3 (human) (UniProt Q9H2K8)"}, "TTK (human)": {"target": "TTK (human) (UniProt P33981)", "sequence (P33981 whole entry, looked up)": "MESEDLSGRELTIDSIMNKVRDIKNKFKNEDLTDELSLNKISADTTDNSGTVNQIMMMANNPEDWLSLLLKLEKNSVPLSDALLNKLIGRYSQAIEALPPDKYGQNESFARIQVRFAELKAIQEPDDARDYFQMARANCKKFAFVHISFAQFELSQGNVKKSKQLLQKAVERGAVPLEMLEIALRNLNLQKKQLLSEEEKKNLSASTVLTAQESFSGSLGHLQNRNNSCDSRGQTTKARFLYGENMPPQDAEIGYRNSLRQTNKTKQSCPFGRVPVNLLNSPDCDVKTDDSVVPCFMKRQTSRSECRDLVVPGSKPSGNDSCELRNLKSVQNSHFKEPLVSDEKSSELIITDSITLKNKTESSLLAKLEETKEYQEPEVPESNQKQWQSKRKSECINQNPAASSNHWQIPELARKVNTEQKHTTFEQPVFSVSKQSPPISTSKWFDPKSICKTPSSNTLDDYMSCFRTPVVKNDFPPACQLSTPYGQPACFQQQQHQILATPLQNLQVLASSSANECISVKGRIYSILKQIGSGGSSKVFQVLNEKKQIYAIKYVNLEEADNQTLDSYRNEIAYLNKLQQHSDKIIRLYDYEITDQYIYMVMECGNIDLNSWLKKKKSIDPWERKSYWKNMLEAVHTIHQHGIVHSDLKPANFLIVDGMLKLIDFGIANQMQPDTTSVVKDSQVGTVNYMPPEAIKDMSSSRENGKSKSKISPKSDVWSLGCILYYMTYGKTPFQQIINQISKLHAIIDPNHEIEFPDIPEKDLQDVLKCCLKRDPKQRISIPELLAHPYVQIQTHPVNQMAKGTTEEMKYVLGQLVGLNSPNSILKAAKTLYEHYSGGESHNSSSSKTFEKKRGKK"}, "[1]": {"target": "TYK2 JH1 catalytic (human) (UniProt P29597)"}}, "data": [{"smiles": "Cc1ccc(NC2=CC(=O)c3sc(C)nc3C2=O)cc1", "values": [{"measurement": "residual activity", "setting": "ABL2 (human)", "result": 98.3, "unit": "%"}, {"measurement": "residual activity", "setting": "ACVR1 (human)", "result": 99.1, "unit": "%"}, {"measurement": "residual activity", "setting": "AKT2 (human)", "result": 91.3, "unit": "%"}, {"measurement": "residual activity", "setting": "CAMKK2 (human)", "result": 92.5, "unit": "%"}, {"measurement": "residual activity", "setting": "CDK2 CCNA2 (human)", "result": 88.1, "unit": "%"}, {"measurement": "residual activity", "setting": "CLK4 (human)", "result": 99.1, "unit": "%"}, {"measurement": "residual activity", "setting": "CSNK2A1 (human)", "result": 98.2, "unit": "%"}, {"measurement": "residual activity", "setting": "DYRK1B (human)", "result": 94.6, "unit": "%"}, {"measurement": "residual activity", "setting": "EPHA8 (human)", "result": 94.1, "unit": "%"}, {"measurement": "residual activity", "setting": "FES (human)", "result": 101, "unit": "%"}, {"measurement": "residual activity", "setting": "FGFR3 (human)", "result": 86, "unit": "%"}, {"measurement": "residual activity", "setting": "FGR (human)", "result": 85.3, "unit": "%"}, {"measurement": "residual activity", "setting": "HIPK2 (human)", "result": 98.5, "unit": "%"}, {"measurement": "residual activity", "setting": "IGF1R (human)", "result": 92.2, "unit": "%"}, {"measurement": "residual activity", "setting": "KDR (human)", "result": 101, "unit": "%"}, {"measurement": "residual activity", "setting": "KIT (human)", "result": 74.7, "unit": "%"}, {"measurement": "residual activity", "setting": "MAP3K7 TAB1 (human)", "result": 99.1, "unit": "%"}, {"measurement": "residual activity", "setting": "MAP4K4 (human)", "result": 84.5, "unit": "%"}, {"measurement": "residual activity", "setting": "MAPKAPK2 (human)", "result": 97.6, "unit": "%"}, {"measurement": "residual activity", "setting": "MST1R (human)", "result": 88.9, "unit": "%"}, {"measurement": "residual activity", "setting": "NEK3 (human)", "result": 88.2, "unit": "%"}, {"measurement": "residual activity", "setting": "NEK6 (human)", "result": 106, "unit": "%"}, {"measurement": "residual activity", "setting": "NUAK2 (human)", "result": 105, "unit": "%"}, {"measurement": "residual activity", "setting": "OXSR1 (human)", "result": 86.6, "unit": "%"}, {"measurement": "residual activity", "setting": "PBK (human)", "result": 85.8, "unit": "%"}, {"measurement": "residual activity", "setting": "PDGFRB (human)", "result": 94.5, "unit": "%"}, {"measurement": "residual activity", "setting": "PIM2 (human)", "result": 103, "unit": "%"}, {"measurement": "residual activity", "setting": "PRKCA (human)", "result": 100, "unit": "%"}, {"measurement": "residual activity", "setting": "PRKD1 (human)", "result": 102, "unit": "%"}, {"measurement": "residual activity", "setting": "PTK2 (human)", "result": 102, "unit": "%"}, {"measurement": "residual activity", "setting": "RIPK2 (human)", "result": 95.2, "unit": "%"}, {"measurement": "residual activity", "setting": "ROCK1 (human)", "result": 100, "unit": "%"}, {"measurement": "residual activity", "setting": "SGK2 (human)", "result": 94.6, "unit": "%"}, {"measurement": "residual activity", "setting": "SIK2 (human)", "result": 118, "unit": "%"}, {"measurement": "residual activity", "setting": "STK16 (human)", "result": 91.7, "unit": "%"}, {"measurement": "residual activity", "setting": "STK24 (human)", "result": 82.8, "unit": "%"}, {"measurement": "residual activity", "setting": "STK4 (human)", "result": 93.5, "unit": "%"}, {"measurement": "residual activity", "setting": "SYK (human)", "result": 97.9, "unit": "%"}, {"measurement": "residual activity", "setting": "TAOK3 (human)", "result": 98.9, "unit": "%"}, {"measurement": "residual activity", "setting": "TTK (human)", "result": 98.9, "unit": "%"}, {"measurement": "residual activity", "setting": "[1]", "result": 109, "unit": "%"}]}, {"smiles": "CC(=O)c1ccc(N2CCOCC2)cc1O", "values": [{"measurement": "residual activity", "setting": "ABL2 (human)", "result": 104, "unit": "%"}, {"measurement": "residual activity", "setting": "ACVR1 (human)", "result": 107, "unit": "%"}, {"measurement": "residual activity", "setting": "AKT2 (human)", "result": 96.2, "unit": "%"}, {"measurement": "residual activity", "setting": "CAMKK2 (human)", "result": 115, "unit": "%"}, {"measurement": "residual activity", "setting": "CDK2 CCNA2 (human)", "result": 99.3, "unit": "%"}, {"measurement": "residual activity", "setting": "CLK4 (human)", "result": 111, "unit": "%"}, {"measurement": "residual activity", "setting": "CSNK2A1 (human)", "result": 101, "unit": "%"}, {"measurement": "residual activity", "setting": "DYRK1B (human)", "result": 99.9, "unit": "%"}, {"measurement": "residual activity", "setting": "EPHA8 (human)", "result": 101, "unit": "%"}, {"measurement": "residual activity", "setting": "FES (human)", "result": 100, "unit": "%"}, {"measurement": "residual activity", "setting": "FGFR3 (human)", "result": 105, "unit": "%"}, {"measurement": "residual activity", "setting": "FGR (human)", "result": 95.6, "unit": "%"}, {"measurement": "residual activity", "setting": "HIPK2 (human)", "result": 106, "unit": "%"}, {"measurement": "residual activity", "setting": "IGF1R (human)", "result": 106, "unit": "%"}, {"measurement": "residual activity", "setting": "KDR (human)", "result": 97.7, "unit": "%"}, {"measurement": "residual activity", "setting": "KIT (human)", "result": 102, "unit": "%"}, {"measurement": "residual activity", "setting": "MAP3K7 TAB1 (human)", "result": 98.6, "unit": "%"}, {"measurement": "residual activity", "setting": "MAP4K4 (human)", "result": 96.9, "unit": "%"}, {"measurement": "residual activity", "setting": "MAPKAPK2 (human)", "result": 103, "unit": "%"}, {"measurement": "residual activity", "setting": "MST1R (human)", "result": 104, "unit": "%"}, {"measurement": "residual activity", "setting": "NEK3 (human)", "result": 103, "unit": "%"}, {"measurement": "residual activity", "setting": "NEK6 (human)", "result": 96.5, "unit": "%"}, {"measurement": "residual activity", "setting": "NUAK2 (human)", "result": 104, "unit": "%"}, {"measurement": "residual activity", "setting": "OXSR1 (human)", "result": 115, "unit": "%"}, {"measurement": "residual activity", "setting": "PBK (human)", "result": 113, "unit": "%"}, {"measurement": "residual activity", "setting": "PDGFRB (human)", "result": 105, "unit": "%"}, {"measurement": "residual activity", "setting": "PIM2 (human)", "result": 117, "unit": "%"}, {"measurement": "residual activity", "setting": "PRKCA (human)", "result": 73.4, "unit": "%"}, {"measurement": "residual activity", "setting": "PRKD1 (human)", "result": 102, "unit": "%"}, {"measurement": "residual activity", "setting": "PTK2 (human)", "result": 107, "unit": "%"}, {"measurement": "residual activity", "setting": "RIPK2 (human)", "result": 103, "unit": "%"}, {"measurement": "residual activity", "setting": "ROCK1 (human)", "result": 92.9, "unit": "%"}, {"measurement": "residual activity", "setting": "SGK2 (human)", "result": 101, "unit": "%"}, {"measurement": "residual activity", "setting": "SIK2 (human)", "result": 87, "unit": "%"}, {"measurement": "residual activity", "setting": "STK16 (human)", "result": 110, "unit": "%"}, {"measurement": "residual activity", "setting": "STK24 (human)", "result": 99, "unit": "%"}, {"measurement": "residual activity", "setting": "STK4 (human)", "result": 102, "unit": "%"}, {"measurement": "residual activity", "setting": "SYK (human)", "result": 92.6, "unit": "%"}, {"measurement": "residual activity", "setting": "TAOK3 (human)", "result": 98.4, "unit": "%"}, {"measurement": "residual activity", "setting": "TTK (human)", "result": 103, "unit": "%"}, {"measurement": "residual activity", "setting": "[1]", "result": 110, "unit": "%"}]}]}
